The text below walks through data of the NIST ThermoML archive (doi:10.1016/j.fluid.2014.11.020).

SMILES strings stand for the structures. Numbers after ± are expanded uncertainties.

This series is described as follows: activity coefficient (dimensionless); of the first substance listed, at infinite dilution; xn = mol fraction of the nth substance listed. As to conditions: Liquid, Chromatography, x1 = 0.

On to `CC#N` [acetonitrile] + CCCCCCCCn1cc[n+](COCCC)c1C.O=S(=O)([N-]S(=O)(=O)C(F)(F)F)C(F)(F)F, for which the activity coefficient reads like this: (323.15 K) 0.48 ± 0.04; (333.15 K) 0.46 ± 0.04; (343.15 K) 0.47 ± 0.04.

Turning to `CCCCCCCCCC` [decane] + CCCOC[n+]1ccn(C)c1.F[B-](F)(F)F, the activity coefficient is, setting by setting: (323.15 K) 635 ± 44; (333.15 K) 573 ± 39; (343.15 K) 500 ± 34.

Regarding `C#CCCCC` [1-hexyne] + Cn1cc[n+](COCCCOC[n+]2ccn(C)c2)c1.O=S(=O)([N-]S(=O)(=O)C(F)(F)F)C(F)(F)F.O=S(=O)([N-]S(=O)(=O)C(F)(F)F)C(F)(F)F, the activity coefficient amounted to 3.81 ± 0.26 (323.15 K), 3.68 ± 0.25 (333.15 K) and 3.4 ± 0.23 (343.15 K).

With `CCCC(C)=O` [pentan-2-one] + CCCOC[n+]1ccc(N(C)C)cc1.O=S(=O)([N-]S(=O)(=O)C(F)(F)F)C(F)(F)F, the activity coefficient runs as follows: (323.15 K) 0.75 ± 0.05; (333.15 K) 0.78 ± 0.05; (343.15 K) 0.78 ± 0.05.

As for `CCCO` [propan-1-ol] + CCCOC[n+]1ccn(Cc2ccccc2)c1.N#C[N-]C#N, the activity coefficient amounted to 0.84 ± 0.05 (323.15 K), 0.7 ± 0.05 (333.15 K) and 0.69 ± 0.05 (343.15 K).

With `CCC(=O)CC` [pentan-3-one] + CCCCCCCCn1cc[n+](COCCC)c1C.N#C[N-]C#N, the activity coefficient reads like this: (323.15 K) 0.88 ± 0.06; (333.15 K) 0.89 ± 0.06; (343.15 K) 0.91 ± 0.06.

`CCCC(C)=O` [pentan-2-one] + CCCOC[n+]1ccn(C)c1.N#C[N-]C#N: the activity coefficient stood at 2.24 ± 0.15 (323.15 K), 2.27 ± 0.15 (333.15 K) and 2.32 ± 0.16 (343.15 K).

As to `CO` [methanol] + Cn1cc[n+](COCCCOC[n+]2ccn(C)c2)c1.N#C[N-]C#N.N#C[N-]C#N, the activity coefficient reads like this: (323.15 K) 0.38 ± 0.03; (333.15 K) 0.38 ± 0.03; (343.15 K) 0.37 ± 0.03.

On to `CCCCCCCCCC` [decane] + CCCOC[n+]1ccn(Cc2ccccc2)c1.N#C[N-]C#N, for which the activity coefficient (323.15 K) came to 144 ± 9.9, the activity coefficient (333.15 K) came to 123 ± 8.4 and the activity coefficient (343.15 K) was determined as 105 ± 7.2.

For `ClCCl` [dichloromethane] + CCCOC[n+]1ccn(C)c1.F[B-](F)(F)F, the activity coefficient by setting is: (323.15 K) 1.07 ± 0.07; (333.15 K) 1.16 ± 0.07; (343.15 K) 1.19 ± 0.08.

Take `c1ccncc1` [pyridine] + CCCOC[n+]1ccn(Cc2ccccc2)c1.N#C[N-]C#N: the activity coefficient was found to be 0.67 ± 0.05 (323.15 K), 0.69 ± 0.05 (333.15 K) and 0.71 ± 0.05 (343.15 K).

Take `CCCO` [propan-1-ol] + CCCOC[n+]1ccc(N(C)C)cc1.O=S(=O)([N-]S(=O)(=O)C(F)(F)F)C(F)(F)F: the activity coefficient (323.15 K) amounted to 1.93 ± 0.13, the activity coefficient (333.15 K) turned out to be 1.72 ± 0.12 and the activity coefficient (343.15 K) worked out at 1.53 ± 0.1.

In the case of `CCCCCCC` [heptane] + CCCOC[n+]1ccn(Cc2ccccc2)c1.O=S(=O)([N-]S(=O)(=O)C(F)(F)F)C(F)(F)F, the activity coefficient is, setting by setting: (323.15 K) 12 ± 0.82; (333.15 K) 10.1 ± 0.69; (343.15 K) 9.58 ± 0.65.

Turning to `CCCCCCCCCCC` [undecane] + CCCOC[n+]1ccn(C)c1.F[B-](F)(F)F, the activity coefficient amounted to 911 ± 63 (323.15 K), 883 ± 61 (333.15 K) and 780 ± 54 (343.15 K).

Take `CCCCCCCCCCCC` [dodecane] + CCCOC[n+]1ccn(Cc2ccccc2)c1.F[B-](F)(F)F: the activity coefficient by setting is: (323.15 K) 483 ± 33; (333.15 K) 421 ± 29; (343.15 K) 370 ± 25.

On to `CCC(=O)CC` [pentan-3-one] + CCCOC[n+]1ccn(C)c1.O=S(=O)([N-]S(=O)(=O)C(F)(F)F)C(F)(F)F, for which the activity coefficient (323.15 K) is 0.68 ± 0.05, the activity coefficient (333.15 K) was determined as 0.69 ± 0.05 and the activity coefficient (343.15 K) stood at 0.72 ± 0.05.

As to `Cc1ccccc1C` [1,2-dimethylbenzene] + CCCOC[n+]1ccn(Cc2ccccc2)c1.N#C[N-]C#N, the activity coefficient runs as follows: (323.15 K) 3.05 ± 0.21; (333.15 K) 3.03 ± 0.21; (343.15 K) 3.01 ± 0.2.

For the molecule `CCOCC` [diethyl ether] + CCCCCCCCn1cc[n+](COCCC)c1C.O=S(=O)([N-]S(=O)(=O)C(F)(F)F)C(F)(F)F, the activity coefficient by setting is: (323.15 K) 1.13 ± 0.07; (333.15 K) 1.11 ± 0.07.

Take `C[N+](=O)[O-]` [nitromethane] + CCCCCCCCn1cc[n+](COCCCOC[n+]2ccn(CCCCCCCC)c2C)c1C.O=S(=O)([N-]S(=O)(=O)C(F)(F)F)C(F)(F)F.O=S(=O)([N-]S(=O)(=O)C(F)(F)F)C(F)(F)F: the activity coefficient is, setting by setting: (323.15 K) 0.31 ± 0.03; (333.15 K) 0.29 ± 0.03; (343.15 K) 0.47 ± 0.04.

For `CCC[N+](=O)[O-]` [1-nitropropane] + CCCOC[n+]1ccc(N(C)C)cc1.O=S(=O)([N-]S(=O)(=O)C(F)(F)F)C(F)(F)F, the activity coefficient reads like this: (323.15 K) 0.68 ± 0.05; (333.15 K) 0.69 ± 0.05; (343.15 K) 0.69 ± 0.05.

As to `CC(C)O` [propan-2-ol] + Cn1cc[n+](COCCCOC[n+]2ccn(C)c2)c1.N#C[N-]C#N.N#C[N-]C#N, the activity coefficient (323.15 K) came to 1.39 ± 0.09, the activity coefficient (333.15 K) was found to be 1.32 ± 0.09 and the activity coefficient (343.15 K) turned out to be 1.26 ± 0.08.

As to `CCC[N+](=O)[O-]` [1-nitropropane] + CN(C)c1cc[n+](COCCCOC[n+]2ccc(N(C)C)cc2)cc1.O=S(=O)([N-]S(=O)(=O)C(F)(F)F)C(F)(F)F.O=S(=O)([N-]S(=O)(=O)C(F)(F)F)C(F)(F)F, the activity coefficient is 0.57 ± 0.04 (323.15 K), 0.59 ± 0.04 (333.15 K) and 0.56 ± 0.04 (343.15 K).

In the case of `C=CCCCC` [hex-1-ene] + CCCCCCCCn1cc[n+](COCCC)c1C.N#C[N-]C#N, the activity coefficient (323.15 K) amounted to 4.34 ± 0.3, the activity coefficient (333.15 K) worked out at 4.37 ± 0.3 and the activity coefficient (343.15 K) came out at 3.94 ± 0.27.

On to `ClC(Cl)(Cl)Cl` [tetrachloromethane] + CCCCCCCCn1cc[n+](COCCC)c1C.O=S(=O)([N-]S(=O)(=O)C(F)(F)F)C(F)(F)F, for which the activity coefficient runs as follows: (323.15 K) 1.21 ± 0.08; (333.15 K) 1.19 ± 0.08; (343.15 K) 1.24 ± 0.08.

For the molecule `Cc1ccccc1C` [1,2-dimethylbenzene] + CCCOC[n+]1ccn(Cc2ccccc2)c1.O=S(=O)([N-]S(=O)(=O)C(F)(F)F)C(F)(F)F, the activity coefficient by setting is: (323.15 K) 1.58 ± 0.1; (333.15 K) 1.23 ± 0.08; (343.15 K) 1.22 ± 0.08.

For the molecule `Cc1ccccc1C` [1,2-dimethylbenzene] + Cn1cc[n+](COCCCOC[n+]2ccn(C)c2)c1.O=S(=O)([N-]S(=O)(=O)C(F)(F)F)C(F)(F)F.O=S(=O)([N-]S(=O)(=O)C(F)(F)F)C(F)(F)F, the activity coefficient by setting is: (323.15 K) 2.08 ± 0.14; (333.15 K) 2.1 ± 0.14; (343.15 K) 2.04 ± 0.14.

Regarding `CCOCC` [diethyl ether] + CCCOC[n+]1ccn(C)c1.F[B-](F)(F)F, the activity coefficient worked out at 10.4 ± 0.71 (323.15 K) and 10.6 ± 0.72 (333.15 K).

On to `CCc1ccccc1` [ethylbenzene] + CCCOC[n+]1ccn(C)c1.F[B-](F)(F)F, for which the activity coefficient by setting is: (323.15 K) 11 ± 0.75; (333.15 K) 10.8 ± 0.74; (343.15 K) 10.7 ± 0.73.
